Measured values as given in patent publication US12010997B2, “Systems, methods, and apparatuses for disinfection and decontamination” (priority 2020, dated 2024).

System: Phi6 bacteriophage (surrogate for Coronavirus and Ebola)
Assay type: cell-based

[O][Cl+][O-] [ClO2, chlorine dioxide]
log reduction of virions: 6 log
time in which 6-log reduction was achieved: less than 90 minutes
virions recovered from the coupons treated with ClO2 gas: no virions were recovered
